Patent publication US10377711B2, “Cannabinoid type 1 receptor modulators” (priority 2014, dated 2019)

Key:
[1] = target: T1, CB1 receptor (HEK293 CB1 β-arrestin cells) (Homo sapiens, UniProt P21554); experiment: PathHunter β-Arrestin assay, enhancement of anandamide stimulation; format: cell-based; conditions: maximum % increase in stimulation caused by anandamide; for Potency % Enhancement 1000 nM: 1000 nM test compound; for Potency % Enhancement 300 nM: 300 nM test compound; for Potency % Enhancement 100 nM: 100 nM test compound
T1 construct: host or cells: HEK293 CB1 β-arrestin cells (PathHunter)
Source text: PathHunter™ β-Arrestin Assays
β-Arrestins are multifunctional intracellular proteins that interact with a structurally diverse group of cell surface receptors including GPCRs, to regulate cellular functions (see, e.g., Violin and Lefkowitz, 2007).
PathHunter™ enzyme fragment complementation is the most important method to measure β-arrestin recruitment. PathHunter™ β-Arrestin assays developed by DiscoveRX are revolutionary high-throughput screening assays for monitoring GPCR activation following ligand stimulation, without an imaging instrument, fluorescent protein tag, or radioactivity.
Instead, the assays detect GPCR activation through binding of β-arrestin to the expressed GPCR of interest, and measure the interaction of the two proteins using enzyme fragment complementation (EFC). The EFC approach offers a range of benefits for screening; including signal amplification and robust performance.
The larger portion of β-gal, termed EA for enzyme acceptor, is fused to the C-terminus of β-arrestin. The smaller, complementing fragment of β-gal, the ProLink™ tag, is expressed as a fusion protein with the GPCR of interest at the C-terminus. Upon activation, the GPCR is bound by β-arrestin. The interaction of β-arrestin and the GPCR forces the interaction of ProLink and EA, thus allowing complementation of the two fragments of β-gal and the formation of a functional enzyme capable of hydrolyzing substrate and generating a […] signal.
Using the PathHunter™ CB1 kit from DiscoveRX, a cannabinoid CB1 receptor agonist is added and activates the receptor, EA, which is fused to the C-terminus of β-arrestin, and then interacts with the ProLink™ tag which is fused to the CB1 receptor. This will result in the […] signal that is recorded by a luminescence plate reader. The […] signal is directly related to the activation of the receptor, therefore a higher concentration of agonist will yield a larger […] signal. The cannabinoid agonist is added in increasing concentrations to obtain an agonist dose response curve. With pre-incubation of a potential allosteric modulator, either an enhancement of agonist signalling with an allosteric enhancer or a decrease in the maximal response of the agonist with an allosteric inhibitor is expected.
All raw data are obtained as luminescence (relative light units), and are normalised and presented as a percentage of the maximal response for the endogenous cannabinoid CB1 receptor agonist anandamide (N-arachidonoylethanolamine).
The PathHunter™ β-Arrestin assay (from DiscoveRX, Fremont, USA) was performed as follows. HEK293 CB1 β-arrestin cells were plated 48 hours before use and incubated at 37° C., 5% CO2 in a humidified incubator. Test compounds were dissolved in dimethylsulfoxide (DMSO) and diluted in optimized cell culture media (OCC, as supplied by DiscoveRX) media to the required concentrations. 5 μL of test compound or vehicle solution was added to each well and incubated for 60 minutes at 37° C., 5% CO2 in a humidified incubator. 5 μL of increasing concentrations of anandamide was added to each well followed by a 90 minute incubation at 37° C., 5% CO2 in a humidified incubator. 55 μL of detection reagent (as supplied by DiscoveRX) was then added, followed by a further 90 minute incubation at room temperature in the dark. Chemiluminescence, reported in relative light units (RLU—a dimensionless value, standardised as a % of maximum stimulation with anandamide), was measured on a standard luminescence plate reader.
Data were plotted as % of maximal stimulation (Emax) caused by agonist versus the logarithm of concentration of agonist, in the presence or absence of a fixed concentration of test compound (modulator) or vehicle. For example, stimulation in the presence of agonist alone will give a value for stimulation expressed in RLU, which can be expressed as a range from 0% (at lowest agonist concentration, e.g., 1 nM) to 100% (at the highest agonist concentration, e.g., 10 μM). […]

in vitro = conditions: both, microsomes, pH 7.4
Experimental: Human and Rat Liver Microsomal Stability Assay
The metabolic stability of the compounds of the Formula (I) was measured by determination of the rate of compound disappearance when incubated in the presence of both human and rat liver microsomes. Liver microsomes are prepared from the endoplasmic reticulum of hepatocytes and are the primary source of the most important enzymes (cytochrome P450) involved in drug metabolism. Study of drug stability in the presence of liver microsomes is accepted as a valuable model permitting rapid prediction of in vivo drug stability.
Human and rat liver microsomes were obtained from a commercial source. Test compounds (3 μM) were incubated with pooled liver microsomes (male and female). Samples were incubated for a 45 minute period and removed at 5 time points and test compounds were analysed by LC-MS/MS.
The final incubation volume was 25 μL. A control incubation was included for each compound tested, where 0.1 M phosphate buffer pH 7.4 was added instead of NADPH. The control compounds testosterone and 7-hydroxycoumarin were included in each experiment and all incubations were performed singularly for each compound.
Each compound was incubated for 0, 5, 15, 30, and 45 minutes. The control (minus NADPH) was incubated for 45 minutes only. The reactions were stopped by the addition of 50 μL methanol containing internal standard at the appropriate time points. The incubation plates were centrifuged at 2500 rpm for 20 minutes at 4° C. to precipitate the protein.
Following protein precipitation, the sample supernatants were combined in cassettes of up to 4 compounds and analysed using standard LC-MS/MS conditions.
From a plot of the natural logarithm of the peak area ratio (i.e., the ratio of compound peak area:internal standard peak area) against time, the gradient of the line was determined. Subsequently, half-life and intrinsic clearance were calculated using the equations below: Eliminated Rate Constant (k)=(−Gradient).

CCI model = conditions: antagonized by rimonabant; cited from earlier work
[2] = tested on: C57BL/6J mice; FAAH knockout mice; conditions: cited from earlier work
CB1 receptor [3] = target: T2, CB1 receptor (Mus musculus, UniProt P47746); parameters: from the CB1 receptor in mouse brain membranes; host or cells: mouse brain membranes; conditions: mouse brain membranes; cited from earlier work
CB1 receptor [4] = target: T2, CB1 receptor; conditions: equilibrium binding assay; cited from earlier work

T1 sequence (P21554 whole entry): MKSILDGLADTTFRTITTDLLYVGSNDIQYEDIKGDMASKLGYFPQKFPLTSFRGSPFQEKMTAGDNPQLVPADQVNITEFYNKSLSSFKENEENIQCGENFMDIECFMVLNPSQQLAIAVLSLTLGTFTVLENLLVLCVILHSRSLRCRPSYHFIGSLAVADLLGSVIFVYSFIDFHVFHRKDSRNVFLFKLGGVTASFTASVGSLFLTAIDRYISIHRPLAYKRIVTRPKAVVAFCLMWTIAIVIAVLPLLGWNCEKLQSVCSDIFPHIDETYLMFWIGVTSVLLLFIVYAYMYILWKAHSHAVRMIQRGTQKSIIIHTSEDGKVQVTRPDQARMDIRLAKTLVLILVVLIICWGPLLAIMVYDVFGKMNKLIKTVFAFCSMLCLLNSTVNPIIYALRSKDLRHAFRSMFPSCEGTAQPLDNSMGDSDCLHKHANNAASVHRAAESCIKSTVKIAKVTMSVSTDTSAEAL
T2 sequence (P47746 whole entry): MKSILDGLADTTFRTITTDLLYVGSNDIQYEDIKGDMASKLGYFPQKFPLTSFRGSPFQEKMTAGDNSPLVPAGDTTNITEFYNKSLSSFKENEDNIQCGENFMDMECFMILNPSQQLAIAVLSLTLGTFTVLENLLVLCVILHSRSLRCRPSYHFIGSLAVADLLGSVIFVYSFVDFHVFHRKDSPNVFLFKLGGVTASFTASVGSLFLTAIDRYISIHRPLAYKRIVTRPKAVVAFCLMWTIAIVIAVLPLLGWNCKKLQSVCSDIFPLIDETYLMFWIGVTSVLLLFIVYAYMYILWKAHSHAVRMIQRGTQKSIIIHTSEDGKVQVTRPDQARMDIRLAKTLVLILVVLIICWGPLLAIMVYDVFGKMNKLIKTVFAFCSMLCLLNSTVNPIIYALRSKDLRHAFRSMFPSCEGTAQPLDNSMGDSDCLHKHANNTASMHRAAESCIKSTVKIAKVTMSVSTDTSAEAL

CNC(=O)CC(c1ccccc1)c1c(-c2ccccc2)[nH]c2ccccc12 (stereo not drawn) [ABD1106]
Potency % Enhancement 1000 nM [1]: 0%

O=S(=O)(NC(c1ccccc1)c1c(-c2ccccc2)[nH]c2ccccc12)c1ccccc1 (stereo not drawn) [ABD1098]
Potency % Enhancement 1000 nM [1]: 0%

O=C(O)CC(c1ccccc1)c1c(-c2ccccc2)[nH]c2ccc(Cl)cc12 (stereo not drawn) [ABD1003]
Potency % Enhancement 1000 nM [1]: 0%

Cc1ccc2c(C(c3cccs3)C(C#N)C#N)c(-c3ccccc3)[nH]c2c1 (stereo not drawn) [ABD1155, 2-((6-Methyl-2-phenyl-1H-indol-3-yl)(thiophen-2-yl)methyl)malononitrile]
Potency % Enhancement 1000 nM [1]: 67.4%

Cc1ccc2c(C(c3ccccc3)C(C#N)C#N)c(-c3ccccc3)[nH]c2c1 (stereo not drawn) [ABD1133, 2-((6-Methyl-2-phenyl-1H-indol-3-yl)(phenyl)methyl)malononitrile]
Potency % Enhancement 300 nM [1]: 68.7% | Potency % Enhancement 1000 nM [1]: 40.4%

Cc1ccc2c(C(C[N+](=O)[O-])c3ccccc3)c(-c3ccccc3)[nH]c2c1 (stereo not drawn) [ABD999]
Potency % Enhancement 1000 nM [1]: 76.8% | half-life at 3 μM (in vitro; human): 47.7 min | microsomal CLint at 3 μM (in vitro; human): 29.1 µL/min/mg

O=C(C(c1ccccc1)c1c(-c2ccccc2)[nH]c2ccccc12)C(F)(F)F (stereo not drawn) [ABD1139, 1,1,1-Trifluoro-3-phenyl-3-(2-phenyl-1H-indol-3-yl)propan-2-one]
Potency % Enhancement 300 nM [1]: 0% | Potency % Enhancement 1000 nM [1]: 18.6%

FC(F)(F)CC(c1ccccc1)c1c(-c2ccccc2)[nH]c2ccccc12 (stereo not drawn) [ABD1137, 2-Phenyl-3-(3,3,3-trifluoro-1-phenylpropyl)-1H-indole]
Potency % Enhancement 300 nM [1]: 0% | Potency % Enhancement 1000 nM [1]: 20.7%

N#CCC(c1ccccc1)c1c(-c2ccccc2)[nH]c2ccccc12 (stereo not drawn) [ABD1102, 3-Phenyl-3-(2-phenyl-1H-indol-3-yl)propanenitrile]
Potency % Enhancement 300 nM [1]: 0% | Potency % Enhancement 1000 nM [1]: 21.9%

NCC(c1ccccc1)c1c(-c2ccccc2)[nH]c2ccccc12 (stereo not drawn) [ABD1009a]
Potency % Enhancement 1000 nM [1]: 0%

NNC(=O)CC(c1ccccc1)c1c(-c2ccccc2)[nH]c2ccccc12 (stereo not drawn) [ABD1131]
Potency % Enhancement 1000 nM [1]: 0%

Cc1ccc2c(C(C(=O)C(F)(F)F)c3ccccc3)c(-c3ccccc3)[nH]c2c1 (stereo not drawn) [ABD1146, 1,1,1-Trifluoro-3-(6-methyl-2-phenyl-1H-indol-3-yl)-3-phenylpropan-2-one]
Potency % Enhancement 100 nM [1]: 34.0% | Potency % Enhancement 1000 nM [1]: 81.0%

Cc1ccc2c(C(C[N+](=O)[O-])c3cccs3)c(-c3ccccc3)[nH]c2c1 (stereo not drawn) [ZCZ011]
Potency % Enhancement 100 nM [1]: 56.8% | Potency % Enhancement 1000 nM [1]: 126.0% | allodynia induced by mechanical (von Frey filaments) or cold (acetone) stimulation (CCI model): significantly reversed | enhancement of the pharmacological effects of CP55,940 ([2]; 40 mg/kg, C57BL/6J mice): significantly enhanced | enhancement of the pharmacological effects of AEA ([2]; 40 mg/kg, fatty acid amide hydrolase (FAAH) knockout mice): significantly enhanced | potency of AEA in the drug discrimination assay ([2]; 40 mg/kg): significantly increasing | catalepsy, thermal antinociception, hypothermia or changes in locomotor activity ([2]; given alone): did not produce | half-life at 3 μM (in vitro; human): 36.7 min | microsomal CLint at 3 μM (in vitro; human): 37.8 µL/min/mg | half-life at 3 μM (in vitro; rat): 8.1 min | microsomal CLint at 3 μM (in vitro; rat): 127 µL/min/mg

N#CC(C#N)C(c1ccccc1)c1c(-c2ccccc2)[nH]c2ccccc12 (stereo not drawn) [ABD1100, 2-(Phenyl(2-phenyl-1H-indol-3-yl)methyl)malononitrile]
Potency % Enhancement 300 nM [1]: 0% | Potency % Enhancement 1000 nM [1]: 19.6%

Cc1ccc2c(C(CC(F)(F)F)c3cccs3)c(-c3ccccc3)[nH]c2c1 (stereo not drawn) [ABD1187, 6-Methyl-2-phenyl-3-(3,3,3-trifluoro-1-(thiophen-2-yl)propyl)-1H-indole]
microsomal CLint at 3 μM (in vitro; human): 5 µL/min/mg

c1ccc(-c2[nH]c3ccccc3c2C(Cn2ccnn2)c2ccccc2)cc1 (stereo not drawn) [ABD1117]
Potency % Enhancement 1000 nM [1]: 0%

CCc1c(C(=O)NCCc2ccc(N(C)C)cc2)[nH]c2ccc(F)cc12 [ORG27759]
dissociation of radiolabelled CB1 receptor agonist CP55940 from the CB1 receptor (CB1 receptor [3]): slowing of the dissociation | binding of CP55940 (CB1 receptor [4]): increase | binding of radiolabelled inverse agonist SR141716A (CB1 receptor [4]): decrease

c1ccc(-c2[nH]c3ccccc3c2-c2nnnn2-c2ccccc2)cc1 [ABD1078]
Potency % Enhancement 1000 nM [1]: 0%

Cc1ccc2c(C(CC#N)c3ccccc3)c(-c3ccccc3)[nH]c2c1 (stereo not drawn) [ABD1132, 3-(6-Methyl-2-phenyl-1H-indol-3-yl)-3-phenylpropanenitrile]
Potency % Enhancement 300 nM [1]: 21.6% | Potency % Enhancement 1000 nM [1]: 80.6%

CS(=O)(=O)NC(c1ccccc1)c1c(-c2ccccc2)[nH]c2ccccc12 (stereo not drawn) [ABD1097]
Potency % Enhancement 1000 nM [1]: 0%

CCc1c(C(=O)NC2CCN(Cc3ccccc3)C2)[nH]c2ccc(Cl)cc12 (stereo not drawn) [ORG29647]
dissociation of radiolabelled CB1 receptor agonist CP55940 from the CB1 receptor (CB1 receptor [3]): slowing of the dissociation | binding of CP55940 (CB1 receptor [4]): increase | binding of radiolabelled inverse agonist SR141716A (CB1 receptor [4]): decrease

NC(=O)NCC(c1ccccc1)c1c(-c2ccccc2)[nH]c2ccccc12 (stereo not drawn) [ABD1011]
Potency % Enhancement 1000 nM [1]: 0%

O=C(O)CC(c1ccccc1)c1c(-c2ccccc2)[nH]c2ccccc12 (stereo not drawn) [ABD1101a]
Potency % Enhancement 1000 nM [1]: 0%

NC(=O)CC(c1ccccc1)c1c(-c2ccccc2)[nH]c2ccccc12 (stereo not drawn) [ABD1105]
Potency % Enhancement 1000 nM [1]: 0%

c1ccc(-c2[nH]c3ccccc3c2-n2nnnc2-c2ccccc2)cc1 [ABD1077]
Potency % Enhancement 1000 nM [1]: 0%

CCc1c(C(=O)NCCc2ccc(N3CCCCC3)cc2)[nH]c2ccc(Cl)cc12 [ORG27569]
dissociation of radiolabelled CB1 receptor agonist CP55940 from the CB1 receptor (CB1 receptor [3]): slowing of the dissociation | binding of CP55940 (CB1 receptor [4]): increase | binding of radiolabelled inverse agonist SR141716A (CB1 receptor [4]): decrease

CS(=O)(=O)NCC(c1ccccc1)c1c(-c2ccccc2)[nH]c2ccccc12 (stereo not drawn) [ABD1009]
Potency % Enhancement 1000 nM [1]: 0%

Cc1ccc2c(C(CC(F)(F)F)c3ccccc3)c(-c3ccccc3)[nH]c2c1 (stereo not drawn) [ABD1145, 6-Methyl-2-phenyl-3-(3,3,3-trifluoro-1-phenylpropyl)-1H-indole]
Potency % Enhancement 100 nM [1]: 45.5% | Potency % Enhancement 1000 nM [1]: 61.9%
